Experimental findings from BindingDB's records for doi:10.7270/Q2DB806H (University of Pittsburgh, 2007) are described below.

By IC50 is commonly meant the concentration that gives 50% inhibition. Higher therefore signals a need for much substance.

The structures appear in SMILES notation.

The target of the assay is T1, Dual specificity protein phosphatase 6 (Rattus norvegicus, UniProt Q64346).
T1 sequence (Q64346 whole entry): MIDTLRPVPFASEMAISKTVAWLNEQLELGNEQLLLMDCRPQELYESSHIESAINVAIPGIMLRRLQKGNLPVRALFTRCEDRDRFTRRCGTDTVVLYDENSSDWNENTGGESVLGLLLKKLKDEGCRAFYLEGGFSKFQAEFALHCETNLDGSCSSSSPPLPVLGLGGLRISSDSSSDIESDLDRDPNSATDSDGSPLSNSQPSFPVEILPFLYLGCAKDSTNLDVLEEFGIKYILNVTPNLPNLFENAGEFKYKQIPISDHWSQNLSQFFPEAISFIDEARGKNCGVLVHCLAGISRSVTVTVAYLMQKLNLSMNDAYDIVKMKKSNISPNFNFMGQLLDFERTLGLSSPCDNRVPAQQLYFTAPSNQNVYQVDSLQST
Put plainly: MKP-3 phosphatase inhibitors, dose response, biochemical, probe assessment (AID 673).
For the molecule `O=C(Nc1ccc2nc(-c3ccco3)c(-c3ccco3)nc2c1)N1CCCCCC1`, the concentration for half-maximal inhibition (IC50) was above 50 µM.
`O=C1Cc2ccccc2C(=O)N1CCc1ccccc1` [2-(2-phenylethyl)-4H-isoquinoline-1,3-dione] had an IC50 of 19.8 µM.
`O=C1C=Cc2ccccc2C1=O` [1,2-dihydronaphthalene-1,2-dione] had an IC50 above 50 µM.
In the case of `Oc1nc(Nc2ccccc2)cc2ccccc12` [MLS000043701], 12.6 µM corresponded to half-maximal inhibition (IC50).
The molecule `COc1ccc2noc3c2c1C(=O)c1ccccc1-3` [MLS000106874] showed an IC50 above 50 µM.
Next, `CC(=O)Nc1cc(OC(C)=O)c2nonc2c1OC(C)=O` [Acetic acid 7-acetoxy-5-acetylamino-benzo[1,2,5]oxadiazol-4-yl ester]: above 50 µM.
Take `CCn1nc(-c2ccccc2)nc2c(=O)n(C)c(=O)nc1-2` [1-Ethyl-6-methyl-3-phenyl-1H-pyrimido[5,4-e][1,2,4]triazine-5,7-dione]: the half-inhibitory concentration (IC50) was 0.615 µM.
Next, `O=C(OC1CCCCC1)c1ccc2c(c1)C1C=CCC1C(C(=O)O)N2` (stereo not drawn) [SMR000019385]: above 50 µM; `Cc1c(N=c2c(=O)c3ccccc3c2=O)c(=O)n(-c2ccccc2)n1C` [MLS000105950]: 19.8 µM.
`[O-]/[N+](=C\c1ccc(OC(F)F)cc1)c1ccccc1` [1-[4-(difluoromethoxy)phenyl]-N-phenylmethanimine oxide] registered a half-maximal inhibitory concentration (IC50) above 50 µM.
In turn, `COc1cccc2c(C)c(C(=O)O)[nH]c12` came in with an IC50 above 50 µM.
Take `Cc1ccc2c(c1C)NC(C(=O)O)C1CC=CC21` (stereo not drawn): the concentration for half-maximal inhibition (IC50) was above 50 µM.
As to `O=C(NC1(O)C(=O)c2ccccc2C1=O)c1ccccc1` [N-(2-hydroxy-1,3-dioxo-2-indenyl)benzamide], inhibition was half-maximal at 48.7 µM (IC50).
The molecule `CCOc1ccc2noc3c2c1C(=O)c1ccccc1-3` [MLS000106837] gave an IC50 above 50 µM.
In the case of `CCn1nc(-c2cccs2)nc2c(=O)n(C)c(=O)nc1-2` [1-ethyl-6-methyl-3-thiophen-2-yl-pyrimido[5,4-e][1,2,4]triazine-5,7-dione], the concentration for half-maximal inhibition (IC50) was 0.629 µM.
In the case of `[O-]/[N+](=C\c1ccncc1)c1ccccc1`, the half-maximal inhibitory concentration (IC50) is above 50 µM.
Next, `Cn1ncnc2c(=O)n(C)c(=O)nc1-2`: 0.433 µM.
`Cc1ccc2c(c1)C1C=CCC1C(C(=O)O)N2` (stereo not drawn) [MLS-0067149.0001]: the 50% inhibitory concentration (IC50) is above 50 µM.
`O=C(O)C1Nc2c(O)cccc2C2C=CCC12` (stereo not drawn) gave an IC50 above 50 µM.
Next, `c1ccc(CSc2nnc(-c3ccco3)c(-c3ccco3)n2)cc1` [MLS-0029114.0001]: above 50 µM.
On to `N#Cc1c(N2CCCC2)nc(N)c2c(N)nc(N3CCCC3)cc12` [SMR000061605], for which the half-maximal inhibitory concentration (IC50) is 3.71 µM.
Consider `Nc1cccc2cnccc12` [isoquinolin-5-amine], for which the IC50 is above 50 µM.
Next, `Cc1ccccc1Nc1cc2ccccc2c(O)n1` [3-[(2-methylphenyl)amino]-2H-isoquinolin-1-one]: 12.1 µM; `CCOC(=O)C(C(=O)OCC)c1cc(Br)c2noc3c2c1C(=O)c1ccccc1-3` [MLS000038842]: above 50 µM; `COc1cccc2c1NC(C(=O)O)C1CC=CC21` (stereo not drawn) [SMR000009698]: above 50 µM.
The molecule `O=C1C=Cc2ccccc2/C1=C/NC12CN3CCN(CN(C3)C1)C2` [MLS000071484] showed an IC50 above 50 µM.
Regarding `N#Cc1c(N)sc(=S)c2c1CCN(Cc1ccccc1)C2` [3-Amino-7-benzyl-1-thioxo-5,6,7,8-tetrahydro-1H-thiopyrano[3,4-c]pyridine-4-carbonitrile], the midpoint of inhibition, the IC50, lay at 2.74 µM.
In the case of `COc1ccc(Br)cc1C=c1sc2nc(-c3ccco3)nn2c1=O` [5-[(5-bromanyl-2-methoxy-phenyl)methylidene]-2-(furan-2-yl)-[1,3]thiazolo[3,2-b][1,2,4]triazol-6-one], the half-inhibitory concentration (IC50) is above 50 µM.
